PubChem BioAssay (NCI)
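Five concentrations, 48 hours, 96-well plates. Here, GI50 denotes the concentration required for 50% inhibition of growth. TGI denotes the concentration required for complete inhibition of growth.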

What was measured:
Test in all cases: NCI tumour cell line growth inhibition, 48 h
EKVX NSCLC = tested on: EKVX NSCLC
UACC-62 melanoma = tested on: UACC-62 melanoma
T-47D breast = tested on: T-47D breast
786-0 renal = tested on: 786-0 renal
SK-MEL-2 melanoma = tested on: SK-MEL-2 melanoma
NCI/ADR-RES ovarian = tested on: NCI/ADR-RES ovarian
SR leukemia = tested on: SR leukemia
NCI-H226 lung = tested on: NCI-H226 lung
RXF 393 renal = tested on: RXF 393 renal
MDA-MB-231 breast = tested on: MDA-MB-231 breast
SNB-75 CNS = tested on: SNB-75 CNS

| SMILES | TGI (EKVX NSCLC) | TGI (UACC-62 melanoma) | TGI (T-47D breast) | TGI (786-0 renal) | TGI (SK-MEL-2 melanoma) | TGI (NCI/ADR-RES ovarian) | TGI (SR leukemia) | TGI (NCI-H226 lung) | TGI (RXF 393 renal) | TGI (MDA-MB-231 breast) | TGI (SNB-75 CNS) | GI50 (EKVX NSCLC) | GI50 (SK-MEL-2 melanoma) | GI50 (NCI/ADR-RES ovarian) |
| --- | --- | --- | --- | --- | --- | --- | --- | --- | --- | --- | --- | --- | --- | --- |
| O=C(O)CN1C(=O)c2ccc(NC(=O)C(=O)O)cc2S1(=O)=O | > 100 µM | > 100 µM | > 100 µM | > 100 µM | > 100 µM | > 100 µM | > 100 µM | > 100 µM | > 100 µM | > 100 µM | – | – | – | – |
| CNC(=S)N/N=C/C(C)=N/NC(=S)NC | > 100 µM | > 100 µM | – | > 100 µM | > 100 µM | – | – | – | > 100 µM | – | – | – | – | – |
| COc1cc2c(c(OC)c1OC)C(=O)c1c(O)cc(C)c(OC)c1C2=O | > 100 µM | – | – | > 100 µM | > 100 µM | > 100 µM | > 100 µM | > 100 µM | – | > 100 µM | > 100 µM | – | – | – |
| CC1=NN(c2nc(N)nc(CO)n2)C(C)(C)C1 | > 100 µM | > 100 µM | > 100 µM | > 100 µM | > 100 µM | > 100 µM | – | > 100 µM | > 100 µM | > 100 µM | > 100 µM | – | – | – |
| CCCCCCCCCCCC1N=C(N)N=C(N)N1c1cccc(Br)c1 (centres undefined) | 2.44 µM | – | – | – | 2.99 µM | 39.6 µM | – | – | – | – | – | 1050 nM | 1550 nM | 14.6 µM |
| CC(=O)N[C@@H](Cc1ccc(O)cn1)C(=O)NCc1ccc(Cl)cc1 | > 100 µM | > 100 µM | > 100 µM | > 100 µM | > 100 µM | > 100 µM | – | > 100 µM | > 100 µM | – | – | – | – | – |
| CNC(=O)OCc1cnc([N+](=O)[O-])n1C | > 100 µM | – | – | > 100 µM | > 100 µM | > 100 µM | > 100 µM | > 100 µM | > 100 µM | > 100 µM | > 100 µM | – | – | – |
| O=c1cc(NNc2cccc3ccccc23)[nH]c(=O)[nH]1 | 27.7 µM | 31.8 µM | 29.6 µM | 18.6 µM | 28.4 µM | 40.9 µM | – | 27.9 µM | 31.9 µM | 26.2 µM | 31.4 µM | – | – | – |
| NC(CCC(=O)c1ccccn1)C(=O)O (centres undefined) | > 100 µM | > 100 µM | > 100 µM | > 100 µM | > 100 µM | > 100 µM | > 100 µM | > 100 µM | > 100 µM | > 100 µM | – | – | – | – |
| CO[C@@]12C[C@H](CNC(=O)c3ccc[nH]3)O[C@@H]1NC(=O)N2 | > 100 µM | > 100 µM | > 100 µM | > 100 µM | > 100 µM | > 100 µM | > 100 µM | > 100 µM | – | > 100 µM | > 100 µM | – | – | – |
| CC(=O)c1csc2c1C(=O)c1ccccc1C2=O | 18.6 µM | 3.73 µM | 50.8 µM | > 22.3 µM | 10.6 µM | 16.6 µM | – | 3.42 µM | 26.7 µM | > 62.9 µM | 3.11 µM | – | – | – |
| Nc1nc(Cl)c(CO)c(NCC2(CO)CCC2)n1 | > 100 µM | – | – | > 100 µM | – | > 100 µM | > 100 µM | > 100 µM | > 100 µM | > 100 µM | > 100 µM | – | – | – |
